pIC50, pKi: −log10 of the molar value.
Tests used:
[1] = target: Norepinephrine transporter (Rattus norvegicus, UniProt Q9WTR4); assay: Binding affinity against Norepinephrine transporter using [3H]nisoxetine in midbrain of rat; assay type: tissue-based
[2] = target: Sodium-dependent serotonin transporter (Rattus norvegicus, UniProt P31652); assay: Binding affinity against serotonin transporter using [3H]paroxetine in rat frontal cortex; assay type: tissue-based
[3] = target: T1, Sodium-dependent dopamine transporter (Rattus norvegicus, UniProt P23977); assay: Binding affinity against Dopamine transporter using [3H]WIN-35 428 in rat striatum; assay type: tissue-based
T1 sequence (P23977 whole entry): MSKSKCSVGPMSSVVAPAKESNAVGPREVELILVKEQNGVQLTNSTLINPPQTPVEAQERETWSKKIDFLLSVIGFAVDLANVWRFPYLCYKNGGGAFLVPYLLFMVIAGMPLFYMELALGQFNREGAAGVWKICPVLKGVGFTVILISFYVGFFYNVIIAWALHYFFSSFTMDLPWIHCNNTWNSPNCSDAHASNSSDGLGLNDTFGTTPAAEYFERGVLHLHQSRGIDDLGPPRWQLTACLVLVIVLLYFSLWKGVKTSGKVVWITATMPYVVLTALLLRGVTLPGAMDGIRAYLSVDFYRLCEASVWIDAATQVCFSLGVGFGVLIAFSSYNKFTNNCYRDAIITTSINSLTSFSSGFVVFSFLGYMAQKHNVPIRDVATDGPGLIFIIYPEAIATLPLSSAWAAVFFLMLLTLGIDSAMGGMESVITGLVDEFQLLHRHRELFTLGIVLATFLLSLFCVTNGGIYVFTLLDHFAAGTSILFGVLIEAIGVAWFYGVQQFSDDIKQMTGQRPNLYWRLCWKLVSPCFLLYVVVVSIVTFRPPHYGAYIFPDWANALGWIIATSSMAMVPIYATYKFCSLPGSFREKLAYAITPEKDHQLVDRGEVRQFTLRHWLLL

[4] = target: T1, Sodium-dependent dopamine transporter; assay: Ability to inhibit [3H]dopamine uptake into rat striatal synaptosomes; assay type: subcellular, Brain
[5] = target: T1, Sodium-dependent dopamine transporter; assay: Ability to inhibition uptake of […]

Norepinephrine transporter, sequence (Q9WTR4 whole entry): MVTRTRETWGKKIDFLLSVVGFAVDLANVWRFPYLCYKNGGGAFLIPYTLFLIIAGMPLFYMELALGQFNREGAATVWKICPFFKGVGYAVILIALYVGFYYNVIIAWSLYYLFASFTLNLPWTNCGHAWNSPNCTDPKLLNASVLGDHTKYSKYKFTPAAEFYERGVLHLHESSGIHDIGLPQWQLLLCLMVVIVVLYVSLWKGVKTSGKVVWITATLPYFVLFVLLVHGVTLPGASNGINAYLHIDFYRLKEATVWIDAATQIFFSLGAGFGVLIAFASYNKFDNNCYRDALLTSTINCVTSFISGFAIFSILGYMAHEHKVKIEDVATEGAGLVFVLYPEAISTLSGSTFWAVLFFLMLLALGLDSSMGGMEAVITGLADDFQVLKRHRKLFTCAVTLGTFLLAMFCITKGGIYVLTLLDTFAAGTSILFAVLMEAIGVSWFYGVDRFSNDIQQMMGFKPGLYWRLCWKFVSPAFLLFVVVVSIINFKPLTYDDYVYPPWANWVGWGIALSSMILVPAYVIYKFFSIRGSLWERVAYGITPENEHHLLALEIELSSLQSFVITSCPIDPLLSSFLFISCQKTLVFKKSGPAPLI
Sodium-dependent serotonin transporter, sequence (P31652 whole entry): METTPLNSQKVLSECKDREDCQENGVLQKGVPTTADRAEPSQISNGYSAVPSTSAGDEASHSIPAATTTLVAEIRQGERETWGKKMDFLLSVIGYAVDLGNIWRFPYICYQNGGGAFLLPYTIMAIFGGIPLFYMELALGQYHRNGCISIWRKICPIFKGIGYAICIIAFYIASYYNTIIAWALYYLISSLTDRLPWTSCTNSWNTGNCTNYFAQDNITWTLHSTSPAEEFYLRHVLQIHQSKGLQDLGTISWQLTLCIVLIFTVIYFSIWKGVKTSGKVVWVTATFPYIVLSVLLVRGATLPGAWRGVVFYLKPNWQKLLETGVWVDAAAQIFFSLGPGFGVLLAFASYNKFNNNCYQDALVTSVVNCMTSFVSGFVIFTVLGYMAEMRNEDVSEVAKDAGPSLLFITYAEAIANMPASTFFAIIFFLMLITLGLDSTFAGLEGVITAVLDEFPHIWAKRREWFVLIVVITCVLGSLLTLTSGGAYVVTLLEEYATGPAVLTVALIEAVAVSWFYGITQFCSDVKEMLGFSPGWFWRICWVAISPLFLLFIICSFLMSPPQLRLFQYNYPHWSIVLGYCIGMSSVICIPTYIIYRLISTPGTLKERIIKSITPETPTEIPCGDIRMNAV

With COC(=O)[C@@H]1C2CC[C@H](C[C@@H]1c1ccc(C)cc1)N2C the pIC50 [1] was 7.22.
With Cc1ccc(C2C[C@H]3CCC([C@H]2c2cc(-c4ccccc4)no2)N3C)cc1 (some centres not stated) the pIC50 [2] was 5.29, the pIC50 [1] was 6.40 and the pIC50 [3] was 8.80.
With CN1C2CC[C@@H]1CC(c1ccc(Cl)cc1)[C@@H]2c1ncc(-c2ccccc2)s1 (some centres not stated) the pIC50 [2] was 4.99, the pIC50 [1] was 5.07 and the pIC50 [3] was 8.24.
Compound Cc1cc([C@H]2C(c3ccc(Cl)cc3)C[C@H]3CCC2N3C)on1 (some centres not stated) has a pIC50 [2] of 6.24, a pIC50 [1] of 6.74 and a pIC50 [3] of 9.23.
Work on CN1C2CCC1[C@@H](c1nnc(-c3ccccc3)s1)C(c1ccc(Cl)cc1)C2 (some centres not stated) yielded a pIC50 [2] of 4.74, a pIC50 [1] of 5.38 and a pIC50 [3] of 7.82.
Work on Cc1ccc(C2C[C@H]3CCC([C@H]2c2nn[nH]n2)N3C)cc1 (some centres not stated) yielded a pIC50 [2] of 4.36, a pIC50 [1] of 4.49 and a pIC50 [3] of 5.81.
CN1C2CC[C@@H]1CC(c1ccc(Cl)cc1)[C@@H]2c1nnn[nH]1 (some centres not stated) gave a pIC50 [2] of 5.26 and a pIC50 [1] of 4.76.
For Cc1ccc(C2C[C@H]3CCC([C@H]2c2nnc(C)o2)N3C)cc1 (some centres not stated), the pIC50 [2] was 5.31, the pIC50 [1] was 6.60 and the pIC50 [3] was 8.35.
In the case of CN1C2CC[C@@H]1CC(c1ccc(Cl)cc1)[C@H]2c1nc2ccccc2s1 (some centres not stated), the pIC50 [2] was 5.28, the pIC50 [1] was 4.23 and the pIC50 [3] was 6.73.
CN1C2CC[C@@H]1CC(c1ccc(Cl)cc1)[C@@H]2c1nnc(-c2ccccc2)o1 (some centres not stated) gave a pIC50 [2] of 5.48, a pKi [4] of 7.73 and a pIC50 [1] of 6.03. For the same compound, the pIC50 [3] was 7.90.
Cc1ccc(C2C[C@H]3CCC([C@H]2C(=O)Oc2ccccc2)N3C)cc1 (some centres not stated) was tested, and the pIC50 [2] was 4.61, the pIC50 [1] was 5.24 and the pIC50 [3] was 8.49.
For Cc1ccc(C2C[C@H]3CCC([C@@H]2c2nnc(-c4ccccc4)o2)N3C)cc1 (some centres not stated), the pIC50 [2] was 4.19, the pIC50 [1] was 4.31 and the pIC50 [3] was 6.28.
Cc1ccc(C2C[C@H]3CCC([C@H]2c2ncc(-c4ccccc4)o2)N3C)cc1 (some centres not stated) gave a pIC50 [2] of 5.77, a pIC50 [1] of 6.17 and a pIC50 [3] of 7.45.
CN1C2CC[C@@H]1CC(c1ccc(Cl)cc1)[C@@H]2c1nc2ccccc2s1 (some centres not stated) gave a pIC50 [2] of 5.95, a pIC50 [1] of 6.39 and a pIC50 [3] of 8.86.
CN1C2CCC1[C@@H](c1nc(-c3ccccc3)no1)C(c1ccc(Cl)cc1)C2 (some centres not stated) showed a pIC50 [2] of 6.71, a pKi [4] of 9.23 and a pIC50 [1] of 6.61. For the same compound, the pIC50 [3] was 8.79.
With Cc1ccc(C2C[C@H]3CCC([C@H]2c2nnc(-c4ccccc4)s2)N3C)cc1 (some centres not stated) the pIC50 [2] was 4.29, the pIC50 [1] was 4.61 and the pIC50 [3] was 7.44.
In the case of CN1C2CC[C@@H]1CC(c1ccc(Cl)cc1)[C@@H]2C(=O)O (some centres not stated), the pIC50 [2] was 4.23, the pIC50 [1] was under 3.70 and the pIC50 [3] was 5.68.
Compound CN1C2CC[C@@H]1CC(c1ccc(I)cc1)[C@@H]2c1cc(-c2ccccc2)no1 (some centres not stated) has a pIC50 [2] of 7.00, a pIC50 [1] of 6.06 and a pIC50 [3] of 8.59.
In the case of CN1C2CC[C@@H]1CC(c1ccc(Cl)cc1)[C@H]2c1nnc(-c2ccccc2)o1 (some centres not stated), the pIC50 [2] was 4.72, the pIC50 [1] was 3.54 and the pIC50 [3] was 5.96.
CN1C2CC[C@@H]1CC(c1ccc(Cl)cc1)[C@@H]2c1cc(-c2ccccc2)no1 (some centres not stated) showed a pIC50 [2] of 5.62, a pKi [4] of 8.68 and a pIC50 [1] of 6.30. For the same compound, the pIC50 [3] was 8.89.
Cc1ccc(C2C[C@H]3CCC([C@H]2c2nnc(-c4ccccc4)o2)N3C)cc1 (some centres not stated) gave a pIC50 [2] of 4.63, a pIC50 [1] of 5.88 and a pIC50 [3] of 7.32.
Work on CN1C2CCC1[C@@H](c1ncc(-c3ccccc3)o1)C(c1ccc(Cl)cc1)C2 (some centres not stated) yielded a pIC50 [2] of 5.95, a pKi [4] of 7.72 and a pIC50 [1] of 6.30. For the same compound, the pIC50 [3] was 7.71.
Work on Cc1ccc(C2C[C@H]3CCC([C@H]2c2cc(C)no2)N3C)cc1 (some centres not stated) yielded a pIC50 [2] of 5.42, a pIC50 [1] of 6.60 and a pIC50 [3] of 9.03.
With Cc1ccc(C2C[C@H]3CCC([C@H]2c2nc(-c4ccccc4)no2)N3C)cc1 (some centres not stated) the pIC50 [2] was 5.97, the pIC50 [1] was 7.22 and the pIC50 [3] was 8.63.
In the case of Cc1cc([C@H]2C(c3ccc(I)cc3)C[C@H]3CCC2N3C)on1 (some centres not stated), the pIC50 [2] was 7.44, the pIC50 [1] was 7.17 and the pIC50 [3] was 9.14.
Compound CN1C2CC[C@@H]1CC(c1ccc(Cl)cc1)[C@@H]2C(=O)Oc1ccccc1 (some centres not stated) has a pIC50 [2] of 5.64, a pKi [5] of 8.28 and a pIC50 [1] of 5.53. The pIC50 [3] was 8.70.
Cc1noc([C@H]2C(c3ccc(Cl)cc3)C[C@H]3CCC2N3C)n1 (some centres not stated) showed a pIC50 [2] of 5.59 and a pIC50 [1] of 6.44.

Source: ChEMBL document CHEMBL1129370, “Synthesis, ligand binding, and quantitative structure-activity relationship study of 3 beta-(4'-substituted phenyl)-2 beta-heterocyclic tropanes: evidence for an electrostatic interaction at the 2 beta-position” (J Med Chem, 1996)
